Here are results for ten compounds from patent US7247736B2, “Method of identifying inhibitors of DHODH” (4SC AG, priority 2002, dated 2007).

“Also recorded” adds a separate entry of the source.

T1 sequence (Q02127 29-395): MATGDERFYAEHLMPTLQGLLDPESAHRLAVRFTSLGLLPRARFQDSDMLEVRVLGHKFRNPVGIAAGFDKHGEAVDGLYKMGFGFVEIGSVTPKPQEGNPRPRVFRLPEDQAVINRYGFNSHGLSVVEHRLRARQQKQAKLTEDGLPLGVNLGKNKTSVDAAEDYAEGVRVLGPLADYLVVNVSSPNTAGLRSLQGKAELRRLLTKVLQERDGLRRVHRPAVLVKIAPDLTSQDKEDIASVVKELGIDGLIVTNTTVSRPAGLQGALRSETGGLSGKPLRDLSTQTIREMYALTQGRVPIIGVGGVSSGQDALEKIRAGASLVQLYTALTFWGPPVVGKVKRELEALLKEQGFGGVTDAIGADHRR

One assay concerns the target T1, human DHODH(Met30-Arg396) (Homo sapiens, UniProt Q02127).
T1 construct: N-terminally truncated human DHODH(Met30-Arg396); made in house; host or cells: E. coli BL21(DE3)Gold, pET-19b
Put plainly: X-ray co-crystal structure, inhibitor binding mode. Conditions: carboxylic acid group, subsite 2 vs subsite 3. Here is the method:
The hanging drops were incubated against 0.5 mL reservoir of 0.1 M acetate pH 4.8, 2.4-2.6 M ammonium sulfate and 30% glycerol. The crystallization conditions were screened by variation of pH versus ammonium sulfate concentration using a small grid screen (see FIG. 2):
The racemic mixtures were used for crystallization experiments.
Crystals were harvested with pre-mounted loops of size 0.5 mm (Hampton Research) and were flash frozen directly in the cryo stream of the measurement device.
Data were collected at the beamline BW6 at the DESY Hamburg on a MAR-CCD camera. […] The crystals were maintained at a temperature of 100 K during data collection.
[…] At this stage 5% or 10% (the “test set”) of unique reflections were flagged for cross validation to calculate the free R-factor (Rfree) during the refinement process.
(§1) The free accessible pdb entry 1D3G.pdb was used as a search model. The ligands brequinar and DDQ as well as all of the water molecules were removed prior to the MR search. The search model included the polypeptide chain of hDHODH(Met30-Arg396), one molecule of orotate, one molecule of the cofactor flavinmononucleotide (FMN) and one acetate molecule which was present under the crystallization conditions.
In a first round of refinement the MR model was subjected to rigid body refinement and a slow cooling simulated annealing protocol using a maximum likelihood target to remove model bias (Accelrys Inc. CNX program suite, CNX2002). Additionally, an individual b-factor refinement was carried out using standard CNX protocols.
After energy minimization the compound was built into the electron density manually. […] After an additional round of model building and water picking using CNX another complete round of refinement was performed.
as §1
In a first round of refinement the MR model was subjected to rigid body refinement and a slow cooling simulated annealing protocol using a maximum likelihood target to remove model bias (Accelrys Inc. CNX program suite, CNX2002). Additionally, an individual b-factor refinement was carried out using standard CNX-protocols.
Both compounds were energy minimized and built into the electron density manually. […] After an additional round of model building and water picking using CNX, another complete round of refinement was performed.
For the compound `COc1cccc(-c2ccc(NC(=O)C3=C(C(=O)O)CCC3)c(F)c2)c1` [Compound 1], the “binding mode in crystal structure” value is given as “non-brequinar-like”. Turning to `O=C(O)C1=C(C(=O)Nc2c(F)cc(-c3cccc(OC(F)(F)F)c3)cc2F)CCC1` [Compound 2], the “binding mode in crystal structure” value is “both a brequinar-like and a non-brequinar-like binding mode; also recorded: both the brequinar-like and non-brequinar-like binding mode”.

Take `O=C(O)C1=C(C(=O)Nc2c(F)c(F)c(-c3cccc(OC(F)(F)F)c3)c(F)c2F)CCC1` [Compound 3]: the “binding mode in crystal structure” value is “both the brequinar-like and non-brequinar-like binding mode”. Take `O=C(O)C1=C(C(=O)Nc2ccc(-c3cccc(OC(F)(F)F)c3)cc2F)CCC1` [Compound 4]: the “binding mode in crystal structure” value is on record as “non-brequinar-like”. On the same count and under the same terms, under `O=C(Nc1ccc(-c2cccc(OC(F)(F)F)c2)cc1F)C1=CCCC1C(=O)O` (stereo not drawn) [Compound 5] stands “non-brequinar-like”. Still for that read-out and setting: as for `COc1cccc(-c2ccc(NC(=O)C3CCCC3C(=O)O)c(F)c2)c1` (stereo not drawn) [Compound 6], the entry is “both a brequinar-like and a non-brequinar-like binding mode”. Regarding `COc1cccc(-c2ccc(NC(=O)C3=C(C(=O)O)CCC3O)c(F)c2)c1` (stereo not drawn) [Compound 7], the “binding mode in crystal structure” value was “non-brequinar-like”. On to `COc1cccc(-c2ccc(NC(=O)C3=C(C(=O)O)C(O)CC3)c(F)c2)c1` (stereo not drawn) [Compound 8], for which the “binding mode in crystal structure” value is on record as “non-brequinar-like”. Consider `O=C(Nc1c(F)cc(-c2cccc(OC(F)(F)F)c2)cc1F)c1ccsc1C(=O)O` [Compound 9], for which the “binding mode in crystal structure” value is “pure brequinar-like binding mode”. Same read-out and setting: as for `COc1cccc(-c2ccc(NC(=O)c3ccsc3C(=O)O)c(F)c2)c1` [Compound 10], the entry is “both a brequinar-like and a non-brequinar-like binding mode; also recorded: both alternatives”.

Still in this assay, the particulars now being: racemic mixture used for crystallization.
Consider `O=C(Nc1ccc(-c2cccc(OC(F)(F)F)c2)cc1F)C1=CCCC1C(=O)O` (stereo not drawn) [Compound 5], for which the “enantiomer bound in refined structure” value is “R-form”. On the same count and under the same terms, under `COc1cccc(-c2ccc(NC(=O)C3CCCC3C(=O)O)c(F)c2)c1` (stereo not drawn) [Compound 6] stands “R-form”.
